From US7923452B2, “Fungicidal mixtures comprising boscalid and pyrimethanil” (BASF SE, priority 2005, dated 2011)

Test system: Puccinia recondita
Test: Protective activity against Puccinia recondita on wheat (brown rust of wheat) (Puccrt P1)
Format: in vivo, Puccinia recondita on wheat seedlings cultivar "Kanzler"
Conditions: single active compound, protective spray 1 day before inoculation, efficacy in % of untreated control (Abbot), read-out: Observed activity (%)
Experimental: The active compounds, separately or jointly, were prepared as a stock solution comprising 25 mg of active compound which was made up to 10 ml using a mixture of acetone and/or dimethyl sulfoxide and the emulsifier Uniperol® EL (wetting agent having an emulsifying and dispersing action based on ethoxylated alkylphenols) in a ratio by volume of solvent/emulsifier of 99:1. The mixture was then made up to 100 ml with water. This stock solution was diluted with the solvent/emulsifier/water mixture described to give the concentration of active compound stated below.
The visually determined percentages of infected leaf areas were converted into efficacies in % of the untreated control:
The efficacy (E) is calculated as follows using Abbot's formula. W=(1−α/β)·100 α corresponds to the fungicidal infection of the treated plants in % and β corresponds to the fungicidal infection of the untreated (control) plants in %
At an efficacy of 0, the infection level of the treated plants corresponds to that of the untreated control plants; at an efficacy of 100, the treated plants are not infected.
The expected efficacies of active compound mixtures were determined using Colby's formula (S. R. Colby, “Calculating synergistic and antagonistic responses of herbicide combinations”, Weeds 15, 20-22 (1967)) and compared with the observed efficacies.
Colby's formula: E=x+y−x−y/100 • E expected efficacy, expressed in % of the untreated control, when using the mixture of the active compounds A and B at the concentrations a and b; • x efficacy, expressed in % of the untreated control, when using the active compound A at the concentration a; • y efficacy, expressed in % of the untreated control, when using the active compound B at the concentration b;
Leaves of potted wheat seedlings of the cultivar “Kanzler” were sprayed to runoff point with an aqueous suspension having the concentration of active compound stated below. […] The extent of the rust fungus development on the leaves was then determined visually.

| SMILES | inhibition at 8 ppm (8 ppm) | inhibition at 2 ppm (2 ppm) | inhibition at 4 ppm (4 ppm) |
| --- | --- | --- | --- |
| O=C(Nc1ccccc1-c1ccc(Cl)cc1)c1cccnc1Cl [Boscalid, boscalid] | 22% | – | – |
| Cc1cc(C)nc(Nc2ccccc2)n1 [Pyrimethanil, pyrimethanil] | – | 0% | 0% |
